Measurements: patent US20080214565A1, “Oxazolidinone Derivatives as Antimicrobials” (priority 2003, published 2008)
In brackets after ≈: the same amount, converted by molar mass.

How the values were obtained:
Strep. pyog. ATCC 19615 = test: MIC by agar incorporation method, S. pyogenes 19615; assay type: cell-based, Streptococcus pyogenes; settings: in vitro, 18 hours
From the text: (§1) The compounds of the invention display antibacterial activity when tested by the agar incorporation method. The following minimum inhibitory concentrations (μg/ml) were obtained for representative compounds of the invention which are given below in the following table.
(§2) 1) S. aureus ATCC 25923—Staphylococus aureus ATCC 25923 2) MRSA 15187—Methicillin Resistant Staphylococcus aureus 3) Ent. faecalis ATCC 29212—Enterococcus faecalis ATCC 29212 4) Ent. faecium 6A—Enterococcus faecium 6A Van®, Cipro® 5) Strep. pne. ATCC 6303—Streptococcus pneumoniae ATCC 6303 6) Strep. pyog. ATCC 19615—Streptococcus pyogenes 7) S. epidermidis—Staphylococcus epidermidis ATCC 12228
(§3) Briefly, the compounds were dissolved in dimethylsulfoxide and doubling dilution of the compounds were incorporated into Meer Hilton agar before solidification. Inoculum was prepared by suspending 4 to 5 colonies into 5 ml of normal saline solution and adjusting the turbility to 0.5 Macfarland turbidity standard tables (1.5×10^8 CFU/ml), after appropriate dilutions, 10^4 CFU/spot was transferred into the surface of dried plate and incubated for 18 hours (24 hours for MRSN studies). The concentration showing no growth of the inoculated culture was recorded as the MIC. Appropriate ATCC standard strains were simultaneously tested and result recorded only when the MIC's against standard antibiotics were within the acceptable range.

VRE 6A (Ent. faecium 6A) = test: MIC by agar incorporation method, VRE 6A; assay type: cell-based, Enterococcus faecium; settings: in vitro, 18 hours
From the text: as §1, §2, §3

MRSA 33 = test: MIC by agar incorporation method, MRSA 33; assay type: cell-based, Methicillin Resistant Staphylococcus aureus; settings: in vitro, 24 hours
Procedure: as §1, §3

MRSA 562 = test: MIC by agar incorporation method, MRSA 562; assay type: cell-based, Methicillin Resistant Staphylococcus aureus; settings: in vitro, 24 hours
Procedure: as §1, §3

MRSA 15187 = test: MIC by agar incorporation method, MRSA 15187; assay type: cell-based, Methicillin Resistant Staphylococcus aureus; settings: in vitro, 24 hours
From the text: as §1, §2, §3

S. pneum AB34 = test: MIC by agar incorporation method, S. pneum AB34; assay type: cell-based, Streptococcus pneumoniae; settings: in vitro, 18 hours
Procedure: as §1, §3

Ent. faecalis ATCC 29212 = test: MIC by agar incorporation method, E. faecalis 29212; assay type: cell-based, Enterococcus faecalis; settings: in vitro, 18 hours
From the text: as §1, §2, §3

Strep. pne. ATCC 6303 = test: MIC by agar incorporation method, S. pneum 6303; assay type: cell-based, Streptococcus pneumoniae; settings: in vitro, 18 hours
From the text: as §1, §2, §3

S. aureus ATCC 25923 = test: MIC by agar incorporation method, S. aureus ATCC 25923; assay type: cell-based, Staphylococus aureus; settings: in vitro, 18 hours
From the text: as §1, §2, §3

SMILES | minimum inhibitory concentration, S. pyogenes 19615 (Strep. pyog. ATCC 19615) [µg/mL] | minimum inhibitory concentration, VRE 6A (VRE 6A (Ent. faecium 6A)) [µg/mL] | minimum inhibitory concentration, MRSA 33 (MRSA 33) [µg/mL] | minimum inhibitory concentration, MRSA 562 (MRSA 562) [µg/mL] | minimum inhibitory concentration, MRSA 15187 (MRSA 15187) [µg/mL] | minimum inhibitory concentration, S. pneum AB34 (S. pneum AB34) [µg/mL] | minimum inhibitory concentration, E. faecalis 29212 (Ent. faecalis ATCC 29212) [µg/mL] | minimum inhibitory concentration, S. pneum 6303 (Strep. pne. ATCC 6303) [µg/mL] | minimum inhibitory concentration, S. aureus 259231 (S. aureus ATCC 25923) [µg/mL]
NC(=S)NC[C@H]1CN(c2ccc(N3CCN(Cc4ccc([N+](=O)[O-])s4)CC3)c(F)c2)C(=O)O1 [Compound No. 12, (S)—N-[1-[[3-[3-Fluoro-4-[N-1-[4-{2-thienyl-(5-nitro)methyl}]piperazinyl]phenyl]-2-oxo-5-oxazolidinyl]methyl]]-thiourea] | <0.25 | 0.5 (≈ 1.01 µM) | 1 (≈ 2.02 µM) | 0.5 (≈ 1.01 µM) | 0.5 (≈ 1.01 µM) | 0.5 (≈ 1.01 µM) | 1 (≈ 2.02 µM) | 0.5 (≈ 1.01 µM) | 1 (≈ 2.02 µM)
NC(=S)NC[C@H]1CN(c2ccc(N3CCN(Cc4ccc([N+](=O)[O-])o4)CC3)c(F)c2)C(=O)O1 [Compound No. 10, (S)—N-[1-[[3-[3-Fluoro-4-[N-1-[4-{2-furyl-(5-nitro)methyl}]piperazinyl]phenyl]-2-oxo-5-oxazolidinyl]methyl]]-thiourea] | 0.25 (≈ 0.522 µM) | 1 (≈ 2.09 µM) | 1 (≈ 2.09 µM) | 1 (≈ 2.09 µM) | 1 (≈ 2.09 µM) | 0.24 (≈ 0.502 µM) | 0.5 (≈ 1.04 µM) | <0.06 | 1 (≈ 2.09 µM)
